Test results published in US10894085B2, “System for thermotherapy treatment or prevention of antimicrobial resistant or biofilm infections” (FUNDACIÓ HOSPITAL UNIVERSITARI VALL D'HEBRON—INSTITUT DE …, priority 2016, dated 2021).
≈ marks a conversion by molar mass, not a printed value. Read-outs that look alike come from different tables or passages of the source.

What was measured:
Format in all cases: cell-based
[1] = test system: Klebsiella pneumoniae strains; test: Antibiotic susceptibility (CLSI category) of K. pneumoniae clinical isolates; for Antibiotic susceptibility and clinical category (CLSI breakpoint): key: S, susceptible; R, resistant; I, intermediate
[2] = test system: Pseudomonas aeruginosa strains; test: Susceptibility (MIC, CLSI category) of P. aeruginosa clinical isolates; for clinical category (CLSI breakpoint): key: S, susceptible; R, resistant; I, intermediate
[3] = test system: Acinetobacter baumannii isogenic strains; test: microbe, parasite or virus in culture; details: for MIC: Acinetobacter baumannii
P. aeruginosa = test: MIC by broth microdilution (Table 4), P. aeruginosa
Experimental: (§1) The minimum inhibitory concentration (MIC) values were determined by broth microdilution method according to “Methods for Dilution Antimicrobial Susceptibility Tests for Bacteria That Grow Aerobically: Approved Standard M7-A7. CLSI, Wayne, Pa., USA, 2006” Colistin and amikacin free drugs were evaluated to compare the efficacy of nanoparticles. MIC was evaluated in Pa46, Pa1016, Kp1, Kp4, Abl4, Ab4256, MRSA 15, MRSA 16, SE14 an SE94 strains. ATCC P. aeruginosa 27853, ATCC E. coli 25922 and ATCC A. baumannii 19606 were used as quality control.

K. pneumoniea = test: MIC by broth microdilution (Table 4), K. pneumoniae
Experimental: as §1

A. baumannii = test: MIC by broth microdilution (Table 4), A. baumannii
Experimental: as §1

[4] = test system: methicillin-resistant S. aureus; test: MIC by broth microdilution (Table 4), MRSA
Experimental: as §1

S. epidermidis = test: MIC by broth microdilution (Table 4), S. epidermidis
Experimental: as §1

[5] = strain Kp1 (XDR, CTX-M, OXA-48)
[6] = Pseudomonas aeruginosa, strain Pa46 (ST111, XDR, VIM-2), read-out: MIC
[7] = Pseudomonas aeruginosa, strain Pa54 (ST111, XDR, VIM-2), read-out: MIC
[8] = Pseudomonas aeruginosa, strain Pa1016 (ST175, XDR), read-out: MIC
[9] = read-out: MIC values, strain Abl4 (ST2)
[10] = read-out: MIC values, strain Abl1 (ST103)
[11] = read-out: MIC values, strain Abl4256 (ST38)

## CC1(C)S[C@@H]2[C@H](NC(=O)[C@H](N)c3ccccc3)C(=O)N2[C@H]1C(=O)O [AMP, ampicillin]
[1]; [5]
  Antibiotic susceptibility and clinical category (CLSI breakpoint): R
[1]; strain Kp2 (XDR, CTX-M, NDM)
  Antibiotic susceptibility and clinical category (CLSI breakpoint): R
[1]; strain Kp3 (XDR, KPC)
  Antibiotic susceptibility and clinical category (CLSI breakpoint): R
[1]; strain Kp4 (XDR, AmpC)
  Antibiotic susceptibility and clinical category (CLSI breakpoint): R

## C[C@H]1[C@H](NC(=O)/C(=N\OC(C)(C)C(=O)O)c2csc(N)n2)C(=O)N1S(=O)(=O)O [ATM, aztreonam]
[2]; [6]
  MIC: 16 µg/mL (≈ 36.7 µM)
[2]; [7]
  MIC: 32 µg/mL (≈ 73.5 µM)
[2]; [8]
  MIC: 32 µg/mL (≈ 73.5 µM)

## NCC[C@H](O)C(=O)N[C@@H]1C[C@H](N)[C@@H](O[C@H]2O[C@H](CN)[C@@H](O)[C@H](O)[C@H]2O)[C@H](O)[C@H]1O[C@H]1O[C@H](CO)[C@@H](O)[C@H](N)[C@H]1O [Amikacin, amikacin]
[2]; [6]
  MIC: 16 µg/mL (≈ 27.3 µM)
[2]; [7]
  MIC: 16 µg/mL (≈ 27.3 µM)
[2]; [8]
  MIC: 2 µg/mL (≈ 3.42 µM)
[2]; strain Pa46
  clinical category (CLSI breakpoint): S
  susceptibility: susceptible
[2]; strain Pa54
  clinical category (CLSI breakpoint): S
  susceptibility: susceptible
[2]; strain Pa1016
  clinical category (CLSI breakpoint): S
  susceptibility: susceptible
[1]; strain Kp1
  susceptibility: susceptible
[1]; [5]
  Antibiotic susceptibility and clinical category (CLSI breakpoint): S
[1]; strain Kp2 (XDR, CTX-M, NDM)
  Antibiotic susceptibility and clinical category (CLSI breakpoint): R
[1]; strain Kp3 (XDR, KPC)
  Antibiotic susceptibility and clinical category (CLSI breakpoint): R
[1]; strain Kp4
  susceptibility: susceptible
[1]; strain Kp4 (XDR, AmpC)
  Antibiotic susceptibility and clinical category (CLSI breakpoint): S
[3]; [9]
  MIC: ≤ 2 µg/mL
[3]; strain Abl4 (ST2)
  susceptibility: susceptible
P. aeruginosa; Pseudomonas aeruginosa, strain Pa46, read-out: MIC
  MIC: 8 µg/mL (≈ 13.7 µM)
P. aeruginosa; Pseudomonas aeruginosa, strain Pa1016, read-out: MIC
  MIC: 0.5 µg/mL (≈ 0.854 µM)
K. pneumoniea; Klebsiella pneumoniae, strain Kp1, read-out: MIC
  MIC: 2 µg/mL (≈ 3.42 µM)
K. pneumoniea; Klebsiella pneumoniae, strain Kp4, read-out: MIC
  MIC: 1 to 2 µg/mL (≈ 1.71 to 3.42 µM)
A. baumannii; Acinetobacter baumannii, strain Ab4256, read-out: MIC
  MIC: 8 µg/mL (≈ 13.7 µM)
A. baumannii; Acinetobacter baumannii, strain Abl4, read-out: MIC
  MIC: 1 µg/mL (≈ 1.71 µM)
[4]; Staphylococcus aureus, strain MRSA15, read-out: MIC
  MIC: 8 to 16 µg/mL (≈ 13.7 to 27.3 µM)
[4]; strain MRSA16
  MIC: 8 to 16 µg/mL
S. epidermidis; Staphylococcus epidermidis, strain SE14, read-out: MIC
  MIC: 1 to 2 µg/mL (≈ 1.71 to 3.42 µM)
S. epidermidis; Staphylococcus epidermidis, strain SE94, read-out: MIC
  MIC: 1 µg/mL (≈ 1.71 µM)

## CC(C)(O/N=C(\C(=O)N[C@@H]1C(=O)N2C(C(=O)[O-])=C(C[n+]3ccccc3)CS[C@H]12)c1csc(N)n1)C(=O)O [CAZ, ceftazidime]
[1]; [5]
  Antibiotic susceptibility and clinical category (CLSI breakpoint): R
[1]; strain Kp2 (XDR, CTX-M, NDM)
  Antibiotic susceptibility and clinical category (CLSI breakpoint): R
[1]; strain Kp3 (XDR, KPC)
  Antibiotic susceptibility and clinical category (CLSI breakpoint): R
[1]; strain Kp4 (XDR, AmpC)
  Antibiotic susceptibility and clinical category (CLSI breakpoint): R
[3]; [10]
  MIC: ≥ 64 µg/mL
[3]; [9]
  MIC: ≥ 64 µg/mL
[3]; [11]
  MIC: < 8 µg/mL

## CO/N=C(\C(=O)N[C@@H]1C(=O)N2C(C(=O)[O-])=C(C[N+]3(C)CCCC3)CS[C@H]12)c1csc(N)n1 [FEP, cefepime]
[1]; [5]
  Antibiotic susceptibility and clinical category (CLSI breakpoint): R
[1]; strain Kp2 (XDR, CTX-M, NDM)
  Antibiotic susceptibility and clinical category (CLSI breakpoint): R
[1]; strain Kp3 (XDR, KPC)
  Antibiotic susceptibility and clinical category (CLSI breakpoint): R
[1]; strain Kp4 (XDR, AmpC)
  Antibiotic susceptibility and clinical category (CLSI breakpoint): R
[3]; [10]
  MIC: ≥ 64 µg/mL
[3]; [9]
  MIC: ≥ 64 µg/mL
[3]; [11]
  MIC: 16 µg/mL (≈ 33.3 µM)

## C[C@@H]1O[C@@H]1P(=O)(O)O [FOS, fosfomycin]
[1]; strain Kp1
  susceptibility: susceptible
[1]; [5]
  Antibiotic susceptibility and clinical category (CLSI breakpoint): S
[1]; strain Kp2
  susceptibility: susceptible
[1]; strain Kp2 (XDR, CTX-M, NDM)
  Antibiotic susceptibility and clinical category (CLSI breakpoint): S
[1]; strain Kp3 (XDR, KPC)
  Antibiotic susceptibility and clinical category (CLSI breakpoint): R
[1]; strain Kp4 (XDR, AmpC)
  Antibiotic susceptibility and clinical category (CLSI breakpoint): R

## C[C@@H](O)[C@H]1C(=O)N2C(C(=O)O)=C(SCCN=CN)C[C@H]12 [IMP, imipenem]
[2]; [6]
  MIC: 256 µg/mL (≈ 855 µM)
[2]; [7]
  MIC: 256 µg/mL (≈ 855 µM)
[2]; [8]
  MIC: 16 µg/mL (≈ 53.4 µM)
[1]; [5]
  Antibiotic susceptibility and clinical category (CLSI breakpoint): R
[1]; strain Kp2 (XDR, CTX-M, NDM)
  Antibiotic susceptibility and clinical category (CLSI breakpoint): R
[1]; strain Kp3 (XDR, KPC)
  Antibiotic susceptibility and clinical category (CLSI breakpoint): R
[1]; strain Kp4 (XDR, AmpC)
  Antibiotic susceptibility and clinical category (CLSI breakpoint): R
[3]; [10]
  MIC: ≥ 16 µg/mL
[3]; [9]
  MIC: ≥ 16 µg/mL
[3]; [11]
  MIC: 64 µg/mL (≈ 214 µM)

## C[C@H]1COc2c(N3CCN(C)CC3)c(F)cc3c(=O)c(C(=O)O)cn1c23 [LVX, levofloxacin]
[2]; [6]
  MIC: 32 µg/mL (≈ 88.6 µM)
[2]; [7]
  MIC: 32 µg/mL (≈ 88.6 µM)
[2]; [8]
  MIC: 128 µg/mL (≈ 354 µM)
[2]; strain Pa46
  clinical category (CLSI breakpoint): R
[2]; strain Pa54
  clinical category (CLSI breakpoint): R
[2]; strain Pa1016
  clinical category (CLSI breakpoint): R
[3]; [10]
  MIC: 4 µg/mL (≈ 11.1 µM)
[3]; [9]
  MIC: 4 µg/mL (≈ 11.1 µM)
[3]; [11]
  MIC: ≤ 1 µg/mL

## C[C@@H](O)[C@H]1C(=O)N2C(C(=O)O)=C(S[C@@H]3CN[C@H](C(=O)N(C)C)C3)[C@H](C)[C@H]12 [MEM, meropenem]
[1]; [5]
  Antibiotic susceptibility and clinical category (CLSI breakpoint): R
[1]; strain Kp2 (XDR, CTX-M, NDM)
  Antibiotic susceptibility and clinical category (CLSI breakpoint): R
[1]; strain Kp3 (XDR, KPC)
  Antibiotic susceptibility and clinical category (CLSI breakpoint): R
[1]; strain Kp4 (XDR, AmpC)
  Antibiotic susceptibility and clinical category (CLSI breakpoint): R
[3]; [10]
  MIC: ≥ 16 µg/mL
[3]; [9]
  MIC: ≥ 16 µg/mL
[3]; [11]
  MIC: > 16 µg/mL

## CCN1CCN(C(=O)N[C@@H](C(=O)N[C@@H]2C(=O)N3[C@@H]2SC(C)(C)[C@@H]3C(=O)O)c2ccccc2)C(=O)C1=O [PIP]
[3]; strain Abl1 (ST103)
  MIC values: >=128 mg/L
[3]; strain Abl4 (ST2)
  MIC values: >=128 mg/L
[3]; strain Abl4256 (ST38)
  MIC values: >64 µg/mL

## CN(C)c1cc(NC(=O)CNC(C)(C)C)c(O)c2c1C[C@H]1C[C@H]3[C@H](N(C)C)C(O)=C(C(N)=O)C(=O)[C@@]3(O)C(O)=C1C2=O [TIG, tigecycline]
[3]; [10]
  MIC: 2 µg/mL (≈ 3.41 µM)
[3]; [9]
  MIC: 4 µg/mL (≈ 6.83 µM)
[3]; [11]
  MIC: 0.5 µg/mL (≈ 0.854 µM)
[3]; strain AbII (ST103)
  susceptibility: susceptible
[3]; strain Abl4 (ST2)
  susceptibility: susceptible

## NC[C@H]1O[C@H](O[C@H]2[C@H](O)[C@@H](O[C@H]3O[C@H](CO)[C@@H](O)[C@H](N)[C@H]3O)[C@H](N)C[C@@H]2N)[C@H](N)C[C@@H]1O [TOB, tobramycin]
[2]; [6]
  MIC: 64 µg/mL (≈ 137 µM)
[2]; [7]
  MIC: 128 µg/mL (≈ 274 µM)
[2]; [8]
  MIC: 16 µg/mL (≈ 34.2 µM)
[2]; strain Pa46
  clinical category (CLSI breakpoint): R
[2]; strain Pa54
  clinical category (CLSI breakpoint): R
[2]; strain Pa1016
  clinical category (CLSI breakpoint): R

## colistin
[2]; strain Pa46
  clinical category (CLSI breakpoint): S
  susceptibility: susceptible
[2]; strain Pa46 (ST111, XDR, VIM-2)
  MIC: 0.5 µg/mL
[2]; strain Pa54
  clinical category (CLSI breakpoint): S
  susceptibility: susceptible
[2]; strain Pa54 (ST111, XDR, VIM-2)
  MIC: 0.5 µg/mL
[2]; strain Pa1016
  clinical category (CLSI breakpoint): S
  susceptibility: susceptible
[2]; strain Pa1016 (ST175, XDR)
  MIC: 1 µg/mL
[1]; strain Kp1
  susceptibility: susceptible
[1]; [5]
  Antibiotic susceptibility and clinical category (CLSI breakpoint): S
[1]; strain Kp2
  susceptibility: susceptible
[1]; strain Kp2 (XDR, CTX-M, NDM)
  Antibiotic susceptibility and clinical category (CLSI breakpoint): S
[1]; strain Kp3
  susceptibility: susceptible
[1]; strain Kp3 (XDR, KPC)
  Antibiotic susceptibility and clinical category (CLSI breakpoint): S
[1]; strain Kp4
  susceptibility: susceptible
[1]; strain Kp4 (XDR, AmpC)
  Antibiotic susceptibility and clinical category (CLSI breakpoint): S
[3]; strain AbII (ST103)
  susceptibility: susceptible
[3]; strain Abl1 (ST103)
  MIC values: <=0.5 mg/L
[3]; strain Abl4 (ST2)
  MIC values: <=0.5 mg/L
  susceptibility: susceptible
[3]; strain Abl4256 (ST38)
  MIC values: 0.25 µg/mL
P. aeruginosa; strain Pa46
  MIC: 0.5 to 1 µg/mL
P. aeruginosa; strain Pa1016
  MIC: 0.5 to 1 µg/mL
K. pneumoniea; strain Kp1
  MIC: 1 µg/mL
K. pneumoniea; strain Kp4
  MIC: 0.125 to 0.25 µg/mL
A. baumannii; strain Ab4256
  MIC: 0.25 µg/mL
A. baumannii; strain Abl4
  MIC: 1 µg/mL
[4]; strain MRSA15
  MIC: >128 µg/mL
S. epidermidis; strain SE14
  MIC: 32 to 64 µg/mL
S. epidermidis; strain SE94
  MIC: 32 µg/mL

## gentamicin
[1]; [5]
  Antibiotic susceptibility and clinical category (CLSI breakpoint): R
[1]; strain Kp2 (XDR, CTX-M, NDM)
  Antibiotic susceptibility and clinical category (CLSI breakpoint): R
[1]; strain Kp3
  susceptibility: susceptible
[1]; strain Kp3 (XDR, KPC)
  Antibiotic susceptibility and clinical category (CLSI breakpoint): S
[1]; strain Kp4 (XDR, AmpC)
  Antibiotic susceptibility and clinical category (CLSI breakpoint): R
[3]; strain Abl1 (ST103)
  MIC values: >=16 mg/L
[3]; strain Abl4 (ST2)
  MIC values: 4 µg/mL
[3]; strain Abl4256 (ST38)
  MIC values: >8 µg/mL
